Laboratory results published in patent US10206901B2, “Method and composition for acute treatment of seizures” (JC Pharma, Inc., priority 2016, dated 2019).

Key:
rat model of epilepsy = settings: intraperitoneal injection, cited from earlier work
convulsive seizures = experiment: Acute intranasal treatment of convulsive seizures in pediatric human subjects; assay type: in vivo; settings: human subjects weighing over 60 lbs
Protocol: Three male human pediatric subjects, each under the age of 16, undergoing convulsive seizures, were administered from two to four 0.1 ml doses (each dose 5 mg delta-9-tetrahydrocannabinol with 8% by volume linalool) of the product disclosed herein. Administration was achieved via a nasal spray administered within one or more of the subject's nostrils using the delivery device disclosed herein by a caregiver during the occurrence of the convulsive seizure. In subject one, administered 3 doses, a visible state of cessation of the convulsions of the seizure was achieved by 21 seconds from first dose administration. In subject two, administered 4 doses, a visible state of cessation of the convulsions of the seizure was achieved by 36 seconds from first dose administration. In subject three, administered 2 doses, a visible state of cessation of the convulsions of the seizure was achieved by 27 seconds from first dose administration.
Thus, acute treatment of the convulsive seizure using an average dose of 3×0.1 ml of the 5 mg delta-9-tetrahydrocannabinol with 8% by volume linalool achieved cessation of the convulsion symptom of the convulsive seizure within a mean time of 28 seconds from first dose administration.

In the case of `CCCCCc1cc(O)c2c(c1)OC(C)(C)[C@@H]1CCC(C)=C[C@@H]21` [THC, delta-9-tetrahydrocannabinol], the seizure prevention (rat model of epilepsy; 30.0 mg/kg) is listed as “can prevent seizures from occurring”, the “ED50 anticonvulsant effect (seizure prevention)” value (rat model of epilepsy) is listed as 15.0 mg/kg and the “dose at which anticonvulsant effect starts” value (rat model of epilepsy) is listed as 5.0 mg/kg. For the same compound, the “lowest administered THC dose per body weight at which seizures in progress were stopped” value (convulsive seizures) was “around 0.37 mg/kg” and the “lowest total administered THC dose at which seizures in progress were treated and stopped” value (convulsive seizures) was 10.0 mg.
